In data set [1] the test system is MC-38. The data set is described as follows: Induction of apoptosis in mouse MC38 cells cocultured with condition medium of M2 macrophages assessed as late apoptotic cells at 100 nM by Annexin V/PI staining based flow cytometric analysis (reference value: 1.66 %). It counts as functional. Background: In flow cytometry, cells or beads pass a laser one at a time.

Data set [2] deals with T1, Macrophage colony-stimulating factor 1 receptor (Mus musculus) (UniProt P09581).
T1 sequence (whole entry): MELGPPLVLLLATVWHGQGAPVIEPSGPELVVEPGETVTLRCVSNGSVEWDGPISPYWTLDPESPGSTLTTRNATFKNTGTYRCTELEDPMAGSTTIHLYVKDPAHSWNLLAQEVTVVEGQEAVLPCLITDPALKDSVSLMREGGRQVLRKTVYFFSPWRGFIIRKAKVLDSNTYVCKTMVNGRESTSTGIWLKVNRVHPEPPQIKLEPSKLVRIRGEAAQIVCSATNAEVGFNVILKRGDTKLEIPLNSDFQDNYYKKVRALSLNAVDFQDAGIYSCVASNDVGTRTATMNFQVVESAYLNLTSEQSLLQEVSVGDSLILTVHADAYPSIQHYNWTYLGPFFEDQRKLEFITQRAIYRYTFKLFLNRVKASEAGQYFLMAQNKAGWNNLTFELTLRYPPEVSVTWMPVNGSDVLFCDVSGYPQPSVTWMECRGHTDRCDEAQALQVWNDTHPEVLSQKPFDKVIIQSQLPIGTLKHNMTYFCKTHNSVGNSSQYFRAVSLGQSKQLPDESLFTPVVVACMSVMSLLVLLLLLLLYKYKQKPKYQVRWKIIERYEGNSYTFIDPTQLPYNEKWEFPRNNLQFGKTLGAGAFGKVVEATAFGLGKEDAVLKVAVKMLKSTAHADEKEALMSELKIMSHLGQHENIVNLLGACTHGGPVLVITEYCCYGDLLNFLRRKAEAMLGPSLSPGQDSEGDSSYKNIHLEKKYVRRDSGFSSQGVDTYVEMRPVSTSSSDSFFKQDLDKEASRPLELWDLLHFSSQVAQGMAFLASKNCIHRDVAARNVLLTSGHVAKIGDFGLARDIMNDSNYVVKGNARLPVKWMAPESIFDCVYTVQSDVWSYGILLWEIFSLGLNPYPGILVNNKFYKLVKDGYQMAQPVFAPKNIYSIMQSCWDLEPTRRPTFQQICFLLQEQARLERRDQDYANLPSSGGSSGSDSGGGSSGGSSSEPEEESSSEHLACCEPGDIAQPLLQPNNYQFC
Kind of data set: Induction of thermal stabilization of CSF-1R in female C57BL/6 mouse BMDM cells assessed as increase in melting temperature at 100 nM incubated for 1 hrs under 52 to 68 degreeC by CETSA. It is filed as cell-based.

In data set [3] the test system is MC-38. The data set is described as follows: Antitumor activity against mouse MC38 cells allografted in C57BL/6 mouse model assessed as reduction in tumor volume at 10 to 20 mg/kg, ip administered once daily for 14 days. The conditions noted are these: dose 10-20 mg/kg, time 14.0 day. It is filed as functional, organism-based.
Data set [4] is described as follows: Oral bioavailability in Sprague-Dawley rat at 10 mg/kg. It is filed as ADME, organism-based. To be noted: in vivo.
The subject of data set [5] is MC-38. The data set is described as follows: Inhibition of cell proliferation in mouse MC38 cells at 10 to 100 nM incubated for 20 hrs by CCK8 assay. To be noted: dose 10-100 nM. It counts as functional, cell-based.
The subject of data set [6] is MC-38. Kind of data set: Antitumor activity against mouse MC38 cells allografted in C57BL/6 mouse model assessed as reduction in tumor volume at 10 mg/kg, ip administered once daily for 14 days relative to control. It counts as functional. Also noted: scale not given: the % may be the effect or the level left. To be noted: time 14 day.
A short description of data set [7]: MRT (0 to t) in Sprague-Dawley rat at 1 mg/kg, iv. It counts as ADME, organism-based. To be noted: in vivo.
The nature of data set [8]: Apparent volume of distribution in Sprague-Dawley rat at 1 mg/kg, iv. It counts as ADME, organism-based. To be noted: in vivo, read-out: Vz.
For data set [9], the system named is MC-38. The data set is described as follows: Induction of apoptosis in mouse MC38 cells cocultured with condition medium of M2 macrophages assessed as early apoptotic cells at 10 nM by Annexin V/PI staining based flow cytometric analysis (reference value: 3.16 %). It counts as functional.
A short description of data set [10]: AUC (0 to infinity) in Sprague-Dawley rat at 1 mg/kg, iv. It is filed as ADME, organism-based. The conditions noted are these: in vivo.
The subject of data set [11] is Colorectal cancer organoid. Kind of data set: Antitumor activity against patient derived CRC organoids cocultured with IL-4/13 stimulated M2 macrophages assessed as lytic death state at 10 to 100 nM incubated for 72 hrs. It is filed as functional, tissue-based. The conditions noted are these: Homo sapiens, Colorectum, dose 10-100 nM.
Data set [12] has as its target T1, Macrophage colony-stimulating factor 1 receptor (Mus musculus). The data set is described as follows: Inhibition of CSF-1R signaling pathway activation in female C57BL/6 mouse BMDM cells assessed as reduction in ERK phosphorylation preincubated with compounds for 4 hrs followed by M-CSF stimulation and measured after 30 mins by Western blot analysis. It is filed as cell-based. To be noted: dose 10-100 nM, time 4.5 hrs.

Data set [13] deals with MC-38. Kind of data set: Induction of apoptosis in mouse MC38 cells assessed as late apoptotic cells at 10 nM by Annexin V/PI staining based flow cytometric analysis (reference value: 0.85 %). It counts as functional.
Data set [14] is described as follows: Tmax in Sprague-Dawley rat at 10 mg/kg, po. It counts as ADME, organism-based. To be noted: in vivo.
Data set [15] is described as follows: AUC (0 to infinity) in Sprague-Dawley rat at 10 mg/kg, po. It counts as ADME, organism-based. The conditions noted are these: in vivo.
Data set [16] deals with BMDM. Kind of data set: Induction of repolarization of M2 like macrophage into M1 phenotype in female C57BL/6 mouse BMDM cells assessed as decrease in Chil3l mRNA expression at 10 to 100 nM stimulated with mouse IL4/IL-13 for 24 hrs followed by compound addition and measured after 24 hrs by qPCR analysis. It is filed as functional, cell-based. The conditions noted are these: dose 10-100 nM. (In general: In qPCR the cycle at which signal appears reflects the starting amount.)

Data set [17] deals with MC-38. Kind of data set: Induction of apoptosis in mouse MC38 cells cocultured with condition medium of M2 macrophages assessed as late apoptotic cells at 10 nM by Annexin V/PI staining based flow cytometric analysis (reference value: 1.66 %). It counts as functional.
Data set [18] concerns BMDM. The data set is described as follows: Induction of repolarization of M2 like macrophage into M1 phenotype in female C57BL/6 mouse BMDM cells assessed as increase in number of M1 macrophages by measuring increase in Nos2 expression at 10 to 100 nM stimulated with mouse IL4/IL-13 for 24 hrs followed by compound addition and measured after 24 hrs by immunofluorescence analysis. To be noted: dose 10-100 nM. It is filed as functional, cell-based.

Data set [19] concerns BMDM. Kind of data set: Induction of repolarization of M2 like macrophage into M1 phenotype in female C57BL/6 mouse BMDM cells assessed as increase in Il1 mRNA expression at 10 to 100 nM stimulated with mouse IL4/IL-13 for 24 hrs followed by compound addition and measured after 24 hrs by qPCR analysis. It counts as functional, cell-based. The conditions noted are these: dose 10-100 nM.

For data set [20], the system named is Colorectal cancer organoid. Kind of data set: Antitumor activity against patient derived CRC organoids cocultured with IL-4/13 stimulated M2 macrophages assessed as reduction in number of organoids at 10 to 100 nM incubated for 72 hrs. It is filed as functional, tissue-based. The conditions noted are these: Homo sapiens, Colorectum, dose 10-100 nM.
Data set [21] concerns BMDM. Kind of data set: Induction of repolarization of M2 like macrophage into M1 phenotype in female C57BL/6 mouse BMDM cells assessed as decrease in Arg1 mRNA expression at 10 to 100 nM stimulated with mouse IL4/IL-13 for 24 hrs followed by compound addition and measured after 24 hrs by qPCR analysis. It counts as functional, cell-based. To be noted: dose 10-100 nM.
The subject of data set [22] is MC-38. Kind of data set: Induction of apoptosis in mouse MC38 cells cocultured with condition medium of M2 macrophages assessed as late apoptotic cells at 30 nM by Annexin V/PI staining based flow cytometric analysis (reference value: 1.66 %). It is filed as functional.
Data set [23] has as its target Macrophage colony-stimulating factor 1 receptor (Homo sapiens, UniProt P07333). Kind of data set: Binding affinity to recombinant CSF-1R (unknown origin) assessed as equilibrium dissociation constant by SPR analysis. Background: Surface plasmon resonance follows binding to a sensor surface in real time, without labels.

Structures are written as SMILES. Active and inactive are the calls of the source. The rule behind the calls is not given here.

Chain of Macrophage colony-stimulating factor 1 receptor (P07333 whole entry): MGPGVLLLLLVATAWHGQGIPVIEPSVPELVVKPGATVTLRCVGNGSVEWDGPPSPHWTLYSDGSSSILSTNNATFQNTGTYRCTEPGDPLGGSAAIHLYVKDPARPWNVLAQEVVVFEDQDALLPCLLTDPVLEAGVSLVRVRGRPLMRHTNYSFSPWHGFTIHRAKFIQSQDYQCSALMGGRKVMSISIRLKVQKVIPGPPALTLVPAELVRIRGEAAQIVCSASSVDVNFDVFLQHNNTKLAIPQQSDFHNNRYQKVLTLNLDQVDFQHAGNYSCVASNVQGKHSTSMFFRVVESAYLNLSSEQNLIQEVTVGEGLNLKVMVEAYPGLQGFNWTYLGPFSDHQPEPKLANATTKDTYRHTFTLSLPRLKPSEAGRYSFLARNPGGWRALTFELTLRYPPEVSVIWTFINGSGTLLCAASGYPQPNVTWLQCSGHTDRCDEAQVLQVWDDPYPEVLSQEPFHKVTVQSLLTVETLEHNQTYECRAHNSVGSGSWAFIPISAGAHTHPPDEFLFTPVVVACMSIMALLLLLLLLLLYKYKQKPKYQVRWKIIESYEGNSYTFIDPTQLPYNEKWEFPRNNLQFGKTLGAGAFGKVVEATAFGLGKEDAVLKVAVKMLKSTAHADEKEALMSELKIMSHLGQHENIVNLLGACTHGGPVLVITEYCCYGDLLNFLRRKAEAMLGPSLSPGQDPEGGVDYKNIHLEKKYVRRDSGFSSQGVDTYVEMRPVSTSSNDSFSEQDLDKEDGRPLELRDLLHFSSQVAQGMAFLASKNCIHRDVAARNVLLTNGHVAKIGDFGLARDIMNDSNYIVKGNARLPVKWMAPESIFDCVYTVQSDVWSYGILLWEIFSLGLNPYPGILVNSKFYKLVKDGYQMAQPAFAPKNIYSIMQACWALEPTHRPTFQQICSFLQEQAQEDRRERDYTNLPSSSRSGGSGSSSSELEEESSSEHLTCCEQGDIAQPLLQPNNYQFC

For orientation: bioavailability means dose-corrected exposure relative to a reference, in per cent. The MRT last is the average time that molecules of a dose stay in the body. As a reminder, the AUC(0-inf) is the area under the concentration-time curve extrapolated to infinity. The term Tmax denotes the time from dosing to the highest level. As usually defined, the Kd is the equilibrium constant for the complex coming apart. Regarding `Cc1nc(NC(=O)N[C@@H]2CCCC[C@H]2O)ccc1Oc1c[nH]c2ncc(Cl)cc12`, the Activity in the data set on MC-38 [1] is 5.67%; with MC-38 [3], “Active; Better Activity Observed Than Plx3397-Treated Group”; with MC-38 [6], 38%; with MC-38 [9], 6.15%; in the data set with MC-38 [13], 0.72%; in the data set on MC-38 [17], 3.25%. For the same compound, the Activity in the data set with MC-38 [22] was determined as 4.88%. For the same compound, the outcome (in [2]; in data set [11]; with BMDM [16]; with BMDM [18]; in the data set with BMDM [19]; in data set [20]) was Active. The result with BMDM [21] was Active. The compound further registered a bioavailability in data set [4] of 79.2%. The inhibition result is “Minimal_effect” in the data set with MC-38 [5] and “Dose-dependent-effect” in data set [12]. The MRT last in data set [7] is 1.6 h. Further, the Vd in [8] is 3.28 L/kg. Also, the figures for the AUC(0-inf) in data set [10] and in data set [15] were 0.527 µg·h/mL and 4.17 µg·h/mL, respectively. Further, the Tmax in data set [14] was determined as 1.13 h. Also, in data set [23], the dissociation constant Kd came out at 2.96 nM.

These data come from ChEMBL document CHEMBL6103622 (J Med Chem, 2025).
